Reference: patent US4605744A, “Imidazole derivatives” (Hoffmann-La Roche Inc., priority 1985, dated 1986)

Assays:
Assay in all cases: In vitro antibacterial activity (MIC)
Format in all cases: cell-based
C. diversus CDC 1663-72 = settings: Citrobacter koseri, CDC166372
Procedure, shortened: (§1)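 Twofold-style dilution series (128 to 0.008 μg/ml) made in Mueller-Hinton broth, dispensed, then inoculated with 1.5 μl of a 10^-2 overnight-culture dilution. Plates sealed, held overnight at 37° C, inspected with a viewer.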

C. freundii 8ASM = settings: Citrobacter freundii, 8ASM, C. freundii 8ASM; read-out: MIC
Procedure, shortened: as §1

C. freundii CDC6 = settings: Citrobacter freundii, CDC6
Procedure, shortened: as §1

E. aerogenes 503-478 = settings: Klebsiella aerogenes, 503478, E. aerogenes 503-478; read-out: MIC
Procedure, shortened: as §1

E. cloacae 214 = settings: Enterobacter cloacae, 214
Procedure, shortened: as §1

E. cloacae 5699 = settings: Enterobacter cloacae, 5699, E. cloacae 5699; read-out: MIC
Procedure, shortened: as §1

E. cloacae 6951 = settings: Enterobacter cloacae, 6951, E. cloacae 6951; read-out: MIC
Procedure, shortened: as §1

E. cloacae 9295 = settings: Enterobacter cloacae, 9295, E. cloacae 9295; read-out: MIC
Procedure, shortened: as §1

E. cloacae 9570A = settings: Enterobacter cloacae, read-out: MIC
Procedure, shortened: as §1

E. cloacae P99 = settings: Enterobacter cloacae, P99, E. cloacae P99
Procedure, shortened: as §1

E. coli 48 = settings: Escherichia coli, 48, E. coli 48; read-out: MIC
Procedure, shortened: as §1

E. coli 5152 = settings: Escherichia coli, 5152, E. coli 5152; read-out: MIC
Procedure, shortened: as §1

E. coli R-563 = settings: Escherichia coli, R563
Procedure, shortened: as §1

K. pneumoniae 35 = settings: Klebsiella pneumoniae; K. pneumoniae 35; read-out: MIC
Procedure, shortened: as §1

K. pneumoniae 503-964 = settings: Klebsiella pneumoniae, 503964; K. pneumoniae 503-964; read-out: MIC
Procedure, shortened: as §1

K. pneumoniae 503-994 = settings: Klebsiella pneumoniae, 503994, K. pneumoniae 503-994; read-out: MIC
Procedure, shortened: as §1

K. pneumoniae 5096 = settings: Klebsiella pneumoniae; K. pneumoniae 5096; read-out: MIC
Procedure, shortened: as §1

K. pneumoniae 8357 = settings: Klebsiella pneumoniae, 8357, K. pneumoniae 8357; read-out: MIC
Procedure, shortened: as §1

K. pneumoniae HE7 = settings: Klebsiella pneumoniae; K. pneumoniae HE7; read-out: MIC
Procedure, shortened: as §1

P. aeruginosa 503-56 = settings: Pseudomonas aeruginosa, 50356, P. aeruginosa 503-56; read-out: MIC
Procedure, shortened: as §1

P. aeruginosa 5700 = settings: Pseudomonas aeruginosa, 5700, P. aeruginosa 5700; read-out: MIC
Procedure, shortened: as §1

P. aeruginosa 5712 = settings: Pseudomonas aeruginosa; P. aeruginosa 5712; read-out: MIC
Procedure, shortened: as §1

P. aeruginosa 6148B = settings: Pseudomonas aeruginosa, read-out: MIC
Procedure, shortened: as §1

P. aeruginosa B = settings: Pseudomonas aeruginosa, read-out: MIC
Procedure, shortened: as §1

P. aeruginosa POW 151 = settings: Pseudomonas aeruginosa, POW151
Procedure, shortened: as §1

P. aeruginosa Stone 130 = settings: Pseudomonas aeruginosa, STONE130, read-out: MIC
Procedure, shortened: as §1

P. mirabilis 2 = settings: Proteus mirabilis, 2, P. mirabilis 2; read-out: MIC
Procedure, shortened: as §1

P. mirabilis 620A = settings: Proteus mirabilis, 620A, P. mirabilis 620A; read-out: MIC
Procedure, shortened: as §1

P. rettgeri ATCC 9250 = settings: Providencia rettgeri, ATCC9250, P. rettgeri ATCC 9250; read-out: MIC
Procedure, shortened: as §1

P. vulgaris 100 = settings: Proteus vulgaris; P. vulgaris 100; read-out: MIC
Procedure, shortened: as §1

P. vulgaris ATCC 6380 = settings: Proteus vulgaris, ATCC6380
Procedure, shortened: as §1

S. aureus Giorgio = settings: Staphylococcus aureus, S. aureus Giorgio; read-out: MIC
Procedure, shortened: as §1

S. aureus Smith = settings: Staphylococcus aureus, S. aureus Smith; read-out: MIC
Procedure, shortened: as §1

S. faecalis C1 = settings: Enterococcus faecalis; S. faecalis C1; read-out: MIC
Procedure, shortened: as §1

S. marcescens 5805 = settings: Serratia marcescens, 5805, S. marcescens 5805; read-out: MIC
Procedure, shortened: as §1

S. marcescens S147 = settings: Serratia marcescens; S. marcescens S147; read-out: MIC
Procedure, shortened: as §1

S. marcescens S2 = settings: Serratia marcescens; S. marcescens S2; read-out: MIC
Procedure, shortened: as §1

S. marcescens S3 = settings: Serratia marcescens; S. marcescens S3; read-out: MIC
Procedure, shortened: as §1

S. marcescens S5 = settings: Serratia marcescens, S5, S. marcescens S5; read-out: MIC
Procedure, shortened: as §1

S. marcescens SM = settings: Serratia marcescens, read-out: MIC
Procedure, shortened: as §1

S. pneumoniae 6301 = settings: Streptococcus pneumoniae, 6301, S. pneumoniae 6301; read-out: MIC
Procedure, shortened: as §1

S. pneumoniae 6302 = settings: Streptococcus pneumoniae, 6302, S. pneumoniae 6302; read-out: MIC
Procedure, shortened: as §1

S. pneumoniae SC = settings: Streptococcus pneumoniae, read-out: MIC
Procedure, shortened: as §1

S. pyogenes 503-782 = settings: Streptococcus pyogenes, 503782; S. pyogenes 503-782; read-out: MIC
Procedure, shortened: as §1

S. typhi P58A = settings: Salmonella enterica, TYPHI
Procedure, shortened: as §1

Measured: MIC

CC1(C)S[C@@H]2[C@H](N=CN3CCC(Cn4ccnc4)CC3)C(=O)N2[C@H]1C(=O)O [Compound A]
0.062 µg/mL: C. freundii 8ASM | E. aerogenes 503-478 | E. coli 48
128 µg/mL: S. faecalis C1 | S. pyogenes 503-782
8 µg/mL: P. vulgaris 100 | S. aureus Giorgio | S. aureus Smith
1 µg/mL: S. marcescens 5805 | S. pneumoniae 6301
16 µg/mL: E. coli 5152 | P. mirabilis 620A
64 µg/mL: K. pneumoniae 5096
2 µg/mL: S. marcescens S5 | S. pneumoniae 6302 | S. pneumoniae SC
0.125 µg/mL: C. diversus CDC 1663-72 | C. freundii CDC6 | E. cloacae 214 | E. coli R-563 | P. vulgaris ATCC 6380
4 µg/mL: E. cloacae 6951
> 128 µg/mL: K. pneumoniae HE7 | P. aeruginosa 503-56 | P. aeruginosa 5712 | P. aeruginosa 6148B | P. aeruginosa POW 151 | P. aeruginosa Stone 130
0.25 µg/mL: E. cloacae P99 | K. pneumoniae 35 | K. pneumoniae 503-994 | K. pneumoniae 8357 | P. aeruginosa 5700 | P. aeruginosa B | S. marcescens S147 | S. marcescens S2 | S. marcescens S3 | S. marcescens SM | S. typhi P58A
0.5 µg/mL: E. cloacae 5699 | E. cloacae 9295 | E. cloacae 9570A | P. mirabilis 2 | P. rettgeri ATCC 9250
0.016 µg/mL: K. pneumoniae 503-964
